{
  "source": "patent US8119691B2",
  "about": "“Method for treating airway hyper-responsiveness with lipoxin analogs” (National Institutes of Health (NIH), priority 2001, dated 2012)",
  "key": {"mouse ear skin": {"test_system": "mouse ear skin", "experiment": "Eosinophil tissue infiltration: EPO activity in mouse ear skin after topical LTB4 plus PGE2", "format": "in vivo", "settings": "topical LXa 10 μg per ear, LTB4 1 μg + PGE2 1 μg, 13-16 h", "protocol": "FIG. 6. Expression of human ALX in transgenic mice prevents eosinophil trafficking. LTB4 (1 μg) and PGE2 (1 μg) were topically applied (13-16 h) to mouse ear skin and EPO activity in tissue biopsies was determined by bromination of HPA (see Methods). Values represent the mean±SEM for pmoles Br-HPA per μg total protein for Non-tg littermates (n=6) or BLT-tg (n=2) mice in the absence or presence of topical LXa (10 μg per ear) and 2 separate ALX-tg lines (n=4). *P<0.05 by Student's T-test compared to littermate controls.\nEosinophil tissue infiltration. […] EPO activity was monitored by mono-bromination of HPA (Br-HPA). […] Trimethyl silylated HPA, Br-HPA and d4-tyrosine were detected by GC-MS (GC model #6890, MS model #5973, Hewlett Packard, San Fernando, Calif.). […] EPO activity was quantitated by percent conversion of HPA to Br-HPA, taking into account the recovery of the internal standard (>80%) and normalized for the samples' protein content (determined by BioRad protein reagent) (BioRad, Hercules, Calif.)."}, "[1]": {"test_system": "OVA sensitized and challenged mice", "experiment": "Mediator profile (cytokines, lipid mediators) in BAL fluid by ELISA, OVA sensitized and challenged mice", "format": "in vivo, mouse (BALB/c)", "settings": "LXa 10 μg i.v.", "protocol": "FIG. 3. […] Bronchoalveolar lavage fluids were obtained from OVA sensitized and challenged mice. Leukocytes in bronchoalveolar lavage fluid were enumerated and identified after Wright-Giemsa stain (a). Mediator profile of (b) specific cytokines (IL-5, IL-12, IL-13, eotaxin and TNFα), and lipid mediators, including PGE2 (c), LTB4 and cysLT's (d) were determined by ELISA's in materials from control animals and those receiving LXa (10 μg, i.v.). Results are expressed as mean±SEM (n≧6, d≧2). *P<0.05 by Student's t-test compared to control animals.\nSensitization and challenge protocols. Five to seven week old male BALB/c (Charles River Laboratories, Wilmington, Mass.) or female hCD11b-hALX FvB transgenic mice were housed in isolation cages under viral antibody-free conditions. After Harvard Medical Area IRB approval (Protocol #02570), mice were sensitized with intraperitoneal injections of ovalbumin (OVA) (Grade III; Sigma Chemical Co., St. Louis, Mo.) (10 μg) plus 1 mg aluminum hydroxide (ALUM) (J.T. Baker Chemical Co.; Phillipsburg, N.J.) as adjuvant in 0.2 ml PBS on days 0 and 7. On days 14, 15, 16 and 17, the mice received 10 μg/mouse of an analog (ref. 16) of LXA4 (15-epi,16-para-fluoro-phenoxy-LXA4-methyl ester, LXa) or PBS with 1.6 mM CaCl2 and 1.6 mM MgCl2 (0.1 ml) by intravenous injection at least 1 h prior to an aerosol challenge containing either PBS or 6% OVA for 25 min/day. The analog was designed to resist rapid enzymatic inactivation and was based on the structure of the aspirin-triggered 15-epi-LXA4 (ref. 16), which carries its carbon 15 position alcohol in the R configuration or epimeric (R) to native LXA4. On day 18, 24 h after the last aerosol challenge, airway responsiveness to intravenous methacholine (33-1000 μg/kg) was measured, bilateral bronchoalveolar lavage (BAL) (2 aliquots of 1 ml PBS plus 0.6 mM EDTA) was performed and tissues (whole blood, lungs, mediastinal lymph nodes and spleen) were harvested for histological analysis. Lung resistance (RL) was measured using a sealed constant mass plethysmograph. The effective dose of methacholine required to increase RL to 200% of control values was defined as the ED200 and used as an index of airway responsiveness (as in refs. 14, 15). For mice studied using a whole body plethysmograph to assess airway responsiveness (Buxco), each mouse was placed into a chamber and box pressure/time waveform was analyzed to yield the indicator of airflow obstruction, enhanced pause (Penh). PBS or methacholine (100 mg/ml) was given by aerosol through an inlet of the chamber for 4.5 min. Readings were initiated at 3 min and continued for 12 min. Peak and one min average Penh values were determined. Serum total IgE levels were determined by ELISA (Crystal Chem, Chicago, Ill.). In situ hybridization of murine ALX was performed using an anti-sense oligonucleotide probe (534 bp in length) corresponding to nucleic acids +581-+1115 (GenBank Accession No. NM008042) with the assistance of the Dana-Farber/Harvard Cancer Center Pathology Core Facility (under the direction of Dr. Massimo Loda).\nAllergen-initiated respiratory inflammation. Measurement of inflammatory mediators was determined in cell-free BAL fluid (2000 g, 10 min) by sensitive and specific ELISA's, in tandem, for interleukin-5 (IL-5), IL-13, eotaxin, tumor necrosis factor (TNFα) (R&D Systems, Minneapolis, Minn.), LTB4, cysteinyl LT, PGE2 (Cayman Chemical Co., Ann Arbor, Mich.), and LXA4 (Neogen, Lexington, Ky.). Cells were resuspended in HBSS, enumerated by hemocytometer, and concentrated onto microscope slides by cytocentrifuge (STATspin) (265 g). Cells were stained with a Wright-Giemsa stain (Sigma Chemical Co.) to determine leukocyte differentials (after counting ≧200 cells)."}},
  "note": "Entries after “also recorded” stand apart in the source; their conditions may differ.",
  "data": [
    {"compound": "COC(=O)CCC[C@H](O)[C@H](O)/C=C/C=C/C=C\\C=C\\[C@H](O)COc1ccc(F)cc1", "note": "[LXa, 15-epi,16-para-fluoro-phenoxy-LXA4-methyl ester]", "values": [
      {"measurement": "eicosanoid-stimulated skin EPO activity", "setting": "mouse ear skin; Non-tg mice", "result": "inhibited eicosanoid-stimulated skin EPO activity"},
      {"measurement": "eicosanoid-stimulated skin EPO activity", "setting": "mouse ear skin; mice with increased expression of LTB4 receptors (BLT-tg)", "result": "inhibited eicosanoid-stimulated skin EPO activity"},
      {"measurement": "CysLT's in BAL fluid", "setting": "[1]", "result": "decreased"},
      {"measurement": "IL-5 in BAL fluid", "setting": "[1]", "result": "decreased"},
      {"measurement": "IL-12 in BAL fluid", "setting": "[1]", "result": "not similarly reduced; also recorded: did not significantly alter IL-12 levels"},
      {"measurement": "IL-13 in BAL fluid", "setting": "[1]", "result": "decreased"},
      {"measurement": "PGE2 in BAL fluid", "setting": "[1]", "result": "decreased"},
      {"measurement": "TNF in BAL fluid", "setting": "[1]", "result": "not similarly reduced"},
      {"measurement": "eotaxin in BAL fluid", "setting": "[1]", "result": "decreased"}
    ]}
  ]
}
